Columns and labels:
[1] = target: T1, ADAMTS4 (Homo sapiens, UniProt O75173); assay: Versicanase assay (V1-5GAG, versikine sandwich ELISA); assay type: biochemical; conditions: 100 µM; compared to DMSO control
T1 construct: Human recombinant full-length FLAG-tagged ADAMTS4 and ADAMTS5 were expressed in HEK293T cells; FLAG; made in house; host or cells: HEK293T cells
T1 sequence (O75173 213-837): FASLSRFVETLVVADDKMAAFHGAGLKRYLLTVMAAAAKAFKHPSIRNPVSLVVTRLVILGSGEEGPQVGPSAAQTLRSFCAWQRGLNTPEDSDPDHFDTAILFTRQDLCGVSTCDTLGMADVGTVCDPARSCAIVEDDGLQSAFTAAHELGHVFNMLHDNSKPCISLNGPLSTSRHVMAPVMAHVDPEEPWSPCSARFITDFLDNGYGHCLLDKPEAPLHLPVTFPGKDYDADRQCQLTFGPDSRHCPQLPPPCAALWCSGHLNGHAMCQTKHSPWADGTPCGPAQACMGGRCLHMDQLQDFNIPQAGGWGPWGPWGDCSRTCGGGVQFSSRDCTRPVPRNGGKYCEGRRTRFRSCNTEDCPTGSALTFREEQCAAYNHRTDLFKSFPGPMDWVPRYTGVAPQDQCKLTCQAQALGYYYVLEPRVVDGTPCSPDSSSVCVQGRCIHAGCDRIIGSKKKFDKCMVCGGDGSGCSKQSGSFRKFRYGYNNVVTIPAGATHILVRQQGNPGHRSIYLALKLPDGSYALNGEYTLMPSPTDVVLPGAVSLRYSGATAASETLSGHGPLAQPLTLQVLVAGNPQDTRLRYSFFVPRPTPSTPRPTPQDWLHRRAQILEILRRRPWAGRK
Experimental: (§1) Human recombinant full-length FLAG-tagged ADAMTS4 and ADAMTS5 were expressed in HEK293T cells (Thermo Fisher Scientific) and purified by anti-FLAG immunoaffinity chromatography as before. Concentrations of active proteases were determined by active-site titrations with known concentrations of TIMP-3 (Bio-Techne, 973-TM-010), using QF peptides as substrates. V1-5GAG, a truncated version of versican V1 isoform comprising residues 21–694 and containing a C-terminal 6x His tag[67], was expressed in HE293T cells and purified by immobilized metal affinity chromatography as before.
(§2) Compounds 1–4 (100 µM) or DMSO were incubated with ADAMTS4 (5 nM) or ADAMTS5 (0.4 nM) for 2 h at 37 °C, before addition of V1-5GAG (50 nM). At each time point, reactions were stopped by addition of ethylenediaminetetraacetic acid and ADAMTS-generated versican fragments (versikine) quantified by sandwich ELISA as before[29],[30],[38] using anti-DPEAAE neoepitope antibody (Life Technologies, PA1-1748 A, 5 µg/ml) and polyclonal anti-versican antibody (Abcam, ab171887, 3 µg/ml). For each reaction, the amount of versikine generated was derived from a standard curve (0–1.56 nM) of V1-5GAG completely digested with ADAMTS5. Initial velocities were calculated from the concentration of versikine generated as a function of reaction time. Percent of inhibition was calculated from the DMSO control reactions. IC50 values were determined using the formula: vi/v0 = 1/(1 + [I]/IC50) where vi is the initial velocity of substrate cleavage in the presence of the inhibitor at concentration [I] and v0 is the initial velocity in the presence of an equal concentration (v/v) of DMSO.

[2] = target: T2, ADAMTS5 (Homo sapiens, UniProt Q9UNA0); assay: as above; assay type: biochemical
T2 construct: Human recombinant full-length FLAG-tagged ADAMTS4 and ADAMTS5 were expressed in HEK293T cells; FLAG; made in house; host or cells: HEK293T cells
T2 sequence (Q9UNA0 262-930): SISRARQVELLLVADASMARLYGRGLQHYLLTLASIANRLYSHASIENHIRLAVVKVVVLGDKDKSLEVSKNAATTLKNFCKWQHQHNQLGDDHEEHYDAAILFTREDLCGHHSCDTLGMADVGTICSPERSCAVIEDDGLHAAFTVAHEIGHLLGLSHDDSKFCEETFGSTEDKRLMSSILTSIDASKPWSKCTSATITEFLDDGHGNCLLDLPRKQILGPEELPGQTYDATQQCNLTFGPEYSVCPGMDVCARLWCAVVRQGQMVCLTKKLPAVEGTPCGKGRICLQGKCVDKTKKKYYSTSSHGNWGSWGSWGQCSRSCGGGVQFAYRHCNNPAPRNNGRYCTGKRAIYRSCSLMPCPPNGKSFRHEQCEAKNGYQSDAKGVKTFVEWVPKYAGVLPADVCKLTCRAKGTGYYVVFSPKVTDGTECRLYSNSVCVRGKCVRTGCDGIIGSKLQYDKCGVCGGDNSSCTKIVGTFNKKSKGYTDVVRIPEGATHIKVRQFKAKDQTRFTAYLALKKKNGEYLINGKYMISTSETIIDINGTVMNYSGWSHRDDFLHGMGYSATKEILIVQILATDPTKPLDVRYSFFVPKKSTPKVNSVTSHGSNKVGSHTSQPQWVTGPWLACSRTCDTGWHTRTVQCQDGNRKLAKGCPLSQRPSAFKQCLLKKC
Experimental: as §1, §2

inhibition of ADAMTS4 versicanase activity [1]: sparing ADAMTS4
inhibition at 100 µM ([2]; 100 µM, compared to DMSO control): 76%
IC50 of compound 2 relative to parent compound 4b (higher) ([2]; ADAMTS5 versicanase activity): ~ 4 fold
IC50 ([2]; read-out: IC50 for inhibition of ADAMTS5 versicanase activity): 35 ± 4.8 µM
SMILES: CCC(C)N(Cc1cn(CCCO[C@@H]2O[C@H](CO)[C@@H](O[C@@H]3O[C@H](CO)[C@H](O)[C@H](O)[C@H]3O)[C@H](O)[C@H]2NC(C)=O)nn1)S(=O)(=O)c1ccc(-c2ccccc2)cc1 (stereo partly drawn) [compound 2, N-((2R,3R,4R,5 S,6R)-2-(3-(4-((N-(sec-butyl)-[1,1’-biphenyl]-4-sulfonamido)methyl)-1H-1,2,3-triazol-1-yl)propoxy)-4-hydroxy-6-(hydroxymethyl)-5-(((2 S,3R,4 S,5R,6R)-3,4,5-trihydroxy-6-(hydroxymethyl)tetrahydro-2 H-pyran-2-yl)oxy)tetrahydro-2 H-pyran-3-yl)acetamide]
